Assay results from patent US20080051387A1, “TETRAHYDROPYRIDO[3,4-D]PYRIMIDINES AND RELATED ANALOGUES” (priority 2006, published 2008).

Each compound was assayed against T1, chimeric human H3 receptor (Homo sapiens, UniProt Q9Y5N1) (assay: Chimeric human H3 receptor screening GTP binding assay (inhibition of histamine-stimulated GTP-gamma35S binding, Example 8)). Details: 1 h; assay described in Example 8; symbol "!" in column headed Ki; read-out: Ki ("!": percent inhibition of agonist-induced GTP-gammaS binding to H3).
T1 construct: rat Galpha-i2 (Gnai2, rat); made in house; host or cells: Sf9 insect cells (baculovirus); P2 membranes
T1 sequence (Q9Y5N1 with tags, fused parts or gaps): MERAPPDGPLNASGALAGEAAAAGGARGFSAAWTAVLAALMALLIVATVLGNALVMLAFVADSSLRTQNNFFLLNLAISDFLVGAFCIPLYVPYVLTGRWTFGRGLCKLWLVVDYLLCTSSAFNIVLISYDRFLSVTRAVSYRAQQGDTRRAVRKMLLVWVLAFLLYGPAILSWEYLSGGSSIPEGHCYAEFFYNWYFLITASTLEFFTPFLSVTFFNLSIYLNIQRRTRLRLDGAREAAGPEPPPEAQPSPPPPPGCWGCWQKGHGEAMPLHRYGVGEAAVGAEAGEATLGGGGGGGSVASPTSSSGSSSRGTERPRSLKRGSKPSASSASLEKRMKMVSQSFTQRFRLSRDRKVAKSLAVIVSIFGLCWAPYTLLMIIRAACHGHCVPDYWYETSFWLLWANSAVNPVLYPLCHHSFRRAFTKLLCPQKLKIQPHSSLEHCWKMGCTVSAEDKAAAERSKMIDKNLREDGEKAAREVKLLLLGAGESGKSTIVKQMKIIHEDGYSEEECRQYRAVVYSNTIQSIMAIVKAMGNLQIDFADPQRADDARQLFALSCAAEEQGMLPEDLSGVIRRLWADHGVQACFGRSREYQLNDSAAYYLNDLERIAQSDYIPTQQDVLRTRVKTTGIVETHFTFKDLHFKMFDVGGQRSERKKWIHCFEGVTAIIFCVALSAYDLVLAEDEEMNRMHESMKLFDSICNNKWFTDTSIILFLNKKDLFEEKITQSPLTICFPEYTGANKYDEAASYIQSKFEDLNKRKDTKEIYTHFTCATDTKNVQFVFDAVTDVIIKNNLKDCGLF
Type: biochemical
Procedure: This Example illustrates a representative screening assay for evaluating inhibition of histamine-stimulated GTP-gamma^35S binding. Such GTP binding activity can be used to identify H3 antagonists and inverse agonists. A compound analyzed in this assay is referred to herein as a “test compound,” and the initial identification of antagonists and inverse agonists is performed using a test compound concentration of 4 μM.
Four independent baculoviral stocks (one directing the expression of the chimeric human H3 receptor and three directing the expression of each of the three subunits of a heterotrimeric G-protein) are used to infect a culture of Sƒ9 cells as described above. P2 membranes are prepared as described above, and are resuspended by Dounce homogenization (tight pestle) in GTP binding assay buffer (50 mM Tris pH 7.4, 120 mM NaCl, 5 mM MgCl2, 2 mM EGTA, 1 mg/ml BSA, 0.2 mg/ml bacitracin, 0.02 mg/ml aprotinin, 0.01 mg/ml saponin, 10 μM GDP) and added to assay tubes at a concentration of 35 μg protein/reaction tube. Non-radiolabeled test compounds are added to separate reactions at a concentration of 4 μM along with 1 μM histamine (agonist). Reactions are initiated by the addition of 125 pM GTP-gamma^35S with a final assay volume of 0.20 ml.
After a 60-min incubation at room temperature, reactions are terminated by vacuum filtration over GF/C filters (pre-soaked in 50 mM Tris pH 7.4, 120 mM NaCl plus 0.1% BSA) followed by washing with ice-cold buffer (50 mM Tris pH 7.4, 120 mM NaCl). The amount of receptor-bound (and thereby membrane-bound) GTP-gamma^35S is determined by measuring the bound radioactivity, preferably by liquid scintillation spectrometry of the washed filters. Non-specific binding is determined using 10 uM GTP-gammaS and typically represents less than 5 percent of total binding. After subtraction of non-specific binding, data is expressed as percent inhibition of 1 μM histamine signal.
Neutral antagonists are those test compounds that reduce the histamine-stimulated GTP binding activity towards, but not below, baseline levels. In contrast, in the absence of added histamine, inverse agonists reduce the GTP binding activity of the receptor-containing membranes below baseline. Any test compound that elevates GTP binding activity above baseline in the absence of added histamine in this assay is defined as having agonist activity.

SMILES | inhibition at 4 µM [%]
COc1ccc(C(=O)N2CCc3cnc(N4CCN(C5CCC5)CC4)nc3CC2)c(OC)n1 [Compound 542, 2-(4-cyclobutylpiperazin-1-yl)-7-[(2,6-dimethoxypyridin-3-yl)carbonyl]-6,7,8,9-tetrahydro-5H-pyrimido[4,5-d]azepine] | ≥ 90
O=C(c1cccc(C(F)(F)F)c1Cl)N1CCc2cnc(N3CCN(C4CCC4)CC3)nc2CC1 [Compound 437, 7-[2-chloro-3-(trifluoromethyl)benzoyl]-2-(4-cyclobutylpiperazin-1-yl)-6,7,8,9-tetrahydro-5H-pyrimido[4,5-d]azepine] | ≥ 90
O=C(c1ccc(Br)s1)N1CCc2cnc(N3CCN(C4CCC4)CC3)nc2CC1 [Compound 449, 7-[(5-bromo-2-thienyl)carbonyl]-2-(4-cyclobutylpiperazin-1-yl)-6,7,8,9-tetrahydro-5H-pyrimido[4,5-d]azepine] | ≥ 90
Cc1cnc(C(=O)N2CCc3cnc(N4CCN(C5CCC5)CC4)nc3CC2)cn1 [Compound 486, 2-(4-cyclobutylpiperazin-1-yl)-7-[(5-methylpyrazin-2-yl)carbonyl]-6,7,8,9-tetrahydro-5H-pyrimido[4,5-d]azepine] | ≥ 90
O=C(c1cc(Cl)cc(Cl)c1)N1CCc2cnc(N3CCN(C4CCC4)CC3)nc2CC1 [Compound 398, 2-(4-cyclobutylpiperazin-1-yl)-7-(3,5-dichlorobenzoyl)-6,7,8,9-tetrahydro-5H-pyrimido[4,5-d]azepine] | ≥ 90
CNc1ccc(C(=O)N2CCc3cnc(N4CCN(C5CCC5)CC4)nc3CC2)cc1 [Compound 535, 4-{[2-(4-cyclobutylpiperazin-1-yl)-5,6,8,9-tetrahydro-7H-pyrimido[4,5-d]azepin-7-yl]carbonyl}-N-methylaniline] | ≥ 90
O=C(c1cnccc1C(F)(F)F)N1CCc2cnc(N3CCN(C4CCC4)CC3)nc2CC1 [Compound 476, 2-(4-cyclobutylpiperazin-1-yl)-7-{[4-(trifluoromethyl)pyridin-3-yl]carbonyl}-6,7,8,9-tetrahydro-5H-pyrimido[4,5-d]azepine] | ≥ 90

Same assay, conditions: 1 h; assay of Example 8; symbol "!" in column headed Ki; read-out: percent inhibition of agonist-induced GTP-gammaS binding to H3

SMILES | inhibition at 4 µM [%]
O=C(c1cccc(F)c1)N1CCc2cnc(N3CCN(C4CCC4)CC3)nc2CC1 [Compound 193, 2-(4-cyclobutylpiperazin-1-yl)-7-(3-fluorobenzoyl)-6,7,8,9-tetrahydro-5H-pyrimido[4,5-d]azepine] | ≥ 90
O=C(Cc1ccc(Oc2ccccc2)cc1)N1CCc2cnc(N3CCN(C4CCC4)CC3)nc2CC1 [Compound 283, 2-(4-cyclobutylpiperazin-1-yl)-7-[(4-phenoxyphenyl)acetyl]-6,7,8,9-tetrahydro-5H-pyrimido[4,5-d]azepine] | ≥ 90
O=C(C1COc2ccccc2O1)N1CCc2cnc(N3CCN(C4CCC4)CC3)nc2CC1 (centres unmarked) [Compound 341, 2-(4-cyclobutylpiperazin-1-yl)-7-(2,3-dihydro-1,4-benzodioxin-2-ylcarbonyl)-6,7,8,9-tetrahydro-5H-pyrimido[4,5-d]azepine] | ≥ 90
O=C(Cc1ccc(Cl)cc1Cl)N1CCc2cnc(N3CCN(C4CCC4)CC3)nc2CC1 [Compound 296, 2-(4-cyclobutylpiperazin-1-yl)-7-[(2,4-dichlorophenyl)acetyl]-6,7,8,9-tetrahydro-5H-pyrimido[4,5-d]azepine] | ≥ 90
c1ccc(CN2CCc3cnc(N4CCN(C5CCC5)CC4)nc3CC2)cc1 [Compound 229, 7-benzyl-2-(4-cyclobutylpiperazin-1-yl)-6,7,8,9-tetrahydro-5H-pyrimido[4,5-d]azepine] | ≥ 90
c1nc(N2CCN(C3CCC3)CC2)nc2c1CCN(CC1CCOC1)CC2 (centres unmarked) [Compound 256, 2-(4-cyclobutylpiperazin-1-yl)-7-(tetrahydrofuran-3-ylmethyl)-6,7,8,9-tetrahydro-5H-pyrimido[4,5-d]azepine] | ≥ 90

Same assay, conditions: symbol ! in Ki; test compound 4 μM, 1 μM histamine; read-out: percent inhibition of agonist-induced GTP-gammaS binding to H3

SMILES | inhibition at 4 µM [%]
CC(C)C(=O)N1CCc2c(ncnc2N2CCN(C3CCC3)CC2)C1 [Compound 59, 4-(4-cyclobutylpiperazin-1-yl)-7-isobutyryl-5,6,7,8-tetrahydropyrido[3,4-d]pyrimidine] | ≥ 90
